Test results taken from patent US8163909B2, “Substituted hydroxyethyl amine compounds as beta-secretase modulators and methods of use” (Amgen Inc., priority 2007, dated 2012).
Where two headings read alike, the source gives them in different places.

What was measured:
[1] = molecular target: Beta Secretase enzyme (BACE) (Homo sapiens, UniProt P56817); assay: In vitro enzymatic BACE FRET (fluorescence resonance energy transfer) assay; assay type: biochemical; conditions: read-out: BACE1 FRET assay;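 note: fluorescence read after 1 h with 50 nM quenched peptide substrate spanning the BACE cleavage site, in pH 4.2 acetate buffer containing 10% DMSO and nonionic detergent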
[2] = Microsomal stability assay, rat liver microsomes;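 note: rat liver microsomes (0.25 mg/mL) with about 1 µM compound plus 1 mM NADPH, pH 7.4, 37 °C for 30 min, parent left measured by LC-MS/MS against 0 min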
[3] = Microsomal stability assay, human liver microsomes;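 note: pooled human liver microsomes at 0.25 mg/mL with 1 µM compound and NADPH at 37 °C, pH 7.4, for 30 min, unchanged parent quantified by LC-MS/MS against the 0 min sample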
[4] = test system: Aβ40 in conditioned medium of cells stably expressing Amyloid Precursor Protein (APP); assay: In vitro BACE cell-based assay (Aβ40 in conditioned medium, sandwich ELISA); conditions: Homo sapiens, read-out: HEK cell assay;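 note: compounds added as a dilution series, secreted peptide quantified by europium time-resolved fluorescence readout, potency fitted from percent of control versus compound concentration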
CYP3A4 (CYP3A) = CYP3A4 (CYP3A) (Homo sapiens, UniProt P08684); assay: in vitro; conditions: microsomes, pH 7.4;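 note: inhibition of CYP3A-mediated 1-hydroxymidazolam formation after 10 min incubation with NADPH, quantified by HPLC MS relative to metabolite produced without test compound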
CYP2D6 = CYP2D6 (Homo sapiens, UniProt P10635); assay: CYP2D6 inhibition assay (bufuralol, pooled human liver microsomes)
[5] = BACE enzyme assay, IC50's in uM
[6] = HEK293, HEK cell-based assay, IC50's in uM
[7] = 2D6 IC50 (uM), CYP enzyme inhibition
[8] = HEK293, HEK cell-based assay IC50
[9] = 2D6 IC50 (uM), CYP2D6 inhibition
[10] = HEK293, cell-based assay, HEK cells, IC50's in uM
[11] = 2D6 IC50, CYP enzyme inhibition

Chain of Beta Secretase enzyme (BACE) (P56817 46-501): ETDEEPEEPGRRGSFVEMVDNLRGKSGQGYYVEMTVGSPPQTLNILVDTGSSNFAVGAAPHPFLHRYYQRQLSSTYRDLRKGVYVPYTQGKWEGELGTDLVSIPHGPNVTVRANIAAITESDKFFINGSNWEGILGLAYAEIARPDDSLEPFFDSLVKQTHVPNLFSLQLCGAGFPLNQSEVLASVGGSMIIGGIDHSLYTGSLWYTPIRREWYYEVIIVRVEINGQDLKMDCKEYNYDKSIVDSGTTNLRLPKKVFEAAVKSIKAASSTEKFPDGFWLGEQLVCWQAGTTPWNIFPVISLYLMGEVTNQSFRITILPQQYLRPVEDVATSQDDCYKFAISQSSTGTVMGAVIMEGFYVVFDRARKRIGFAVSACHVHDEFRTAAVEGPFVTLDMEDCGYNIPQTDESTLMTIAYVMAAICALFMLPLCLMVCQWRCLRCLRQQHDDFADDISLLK
Chain of CYP3A4 (CYP3A) (P08684 2-503): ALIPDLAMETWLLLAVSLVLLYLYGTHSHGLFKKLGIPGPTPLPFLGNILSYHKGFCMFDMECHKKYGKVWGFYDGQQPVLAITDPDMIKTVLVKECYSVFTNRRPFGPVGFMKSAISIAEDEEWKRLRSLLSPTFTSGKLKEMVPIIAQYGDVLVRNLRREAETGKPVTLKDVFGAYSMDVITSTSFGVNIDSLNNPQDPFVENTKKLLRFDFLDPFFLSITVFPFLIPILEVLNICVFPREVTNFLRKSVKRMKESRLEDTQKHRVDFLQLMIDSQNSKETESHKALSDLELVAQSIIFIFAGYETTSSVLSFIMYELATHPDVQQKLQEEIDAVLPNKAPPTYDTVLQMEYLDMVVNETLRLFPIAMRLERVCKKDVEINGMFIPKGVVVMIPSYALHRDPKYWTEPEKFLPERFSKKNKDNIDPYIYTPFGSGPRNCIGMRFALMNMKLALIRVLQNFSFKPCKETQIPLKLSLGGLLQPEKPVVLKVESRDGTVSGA
Chain of CYP2D6 (P10635 whole entry): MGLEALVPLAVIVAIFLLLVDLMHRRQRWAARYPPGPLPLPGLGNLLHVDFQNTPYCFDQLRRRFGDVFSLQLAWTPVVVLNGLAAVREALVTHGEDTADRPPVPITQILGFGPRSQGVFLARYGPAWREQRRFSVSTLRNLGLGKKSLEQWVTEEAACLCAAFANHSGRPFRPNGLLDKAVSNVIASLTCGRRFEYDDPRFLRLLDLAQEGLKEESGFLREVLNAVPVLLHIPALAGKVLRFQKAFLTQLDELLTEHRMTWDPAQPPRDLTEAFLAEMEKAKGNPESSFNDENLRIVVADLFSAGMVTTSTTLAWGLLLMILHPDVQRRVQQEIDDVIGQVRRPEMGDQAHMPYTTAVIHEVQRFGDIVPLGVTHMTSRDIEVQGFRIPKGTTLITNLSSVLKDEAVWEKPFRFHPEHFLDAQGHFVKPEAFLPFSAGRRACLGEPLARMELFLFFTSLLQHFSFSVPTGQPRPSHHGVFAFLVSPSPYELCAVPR

SMILES | IC50 [1, 5] | RLM ([2]; rat liver microsomal data) | HLM ([3]; human liver microsomal data) | IC50 [4, 6] | IC50 (CYP3A4 (CYP3A)) | IC50 (CYP2D6; [7]) | IC50 ([1]; BACE enzyme assay) | IC50 ([4]; HEK293, HEK cells) | IC50 ([1]; BACE enzyme assay IC50) | RLM ([2]; rat liver microsomes) | HLM ([3]; human liver microsomes) | IC50 [4, 8] | IC50 (CYP2D6; [9]) | IC50 [4, 10] | IC50 (CYP2D6; [11]) | IC50 ([1]; Table 2) | IC50 ([4]; HEK293, Table 2, HEK cells)
C#Cc1cccc(C[C@H](NC(=O)COC)[C@H](O)CN[C@H]2CC3(CCC3)Oc3ncc(CC(C)(C)C(F)(F)F)cc32)c1 [compound 838] | 0.01 µM | 54 µL/min/mg | 34 µL/min/mg | 0.028 µM | 100 nM | 2 µM |  |  |  |  |  |  |  |  |  |  | 
CO[C@H](C)C(=O)N[C@@H](Cc1ccc2c(c1)OCO2)[C@H](O)CN[C@H]1CC2(CCC2)Oc2ncc(CC(F)(F)F)cc21 [compound 519] |  | 71 µL/min/mg | 33 µL/min/mg |  | 300 nM | 7.4 µM | 0.255 µM | 0.81 µM |  |  |  |  |  |  |  |  | 
COCC(=O)N[C@H](Cc1cccc(-c2nccs2)c1)[C@@H](O)CN[C@H]1CC2(CCC2)Oc2ncc(C3CCCC3)cc21 [compound 810] | 4.49 µM | 271 µL/min/mg | 274 µL/min/mg | 1.34 µM | 100 nM | 0.5 µM |  |  |  |  |  |  |  |  |  |  | 
Cc1ccccc1CN1CCO[C@H](C(=O)N[C@@H](Cc2ccc(F)cc2)[C@H](O)CN[C@H]2CC3(CCC3)Oc3ncc(CC(C)(C)C)cc32)C1 [compound 697] |  |  |  |  | 200 nM |  |  |  | 0.087 µM | 399 µL/min/mg | 775 µL/min/mg | 0.143 µM | 2.7 µM |  |  |  | 
CO[C@H](C)C(=O)N[C@@H](Cc1cccc(-c2nccs2)c1F)[C@H](O)CN[C@H]1CC2(CCC2)Oc2ncc(CC(C)(C)C)cc21 [compound 909] | 0.157 µM | 127 µL/min/mg | 76 µL/min/mg |  | 100 nM |  |  |  |  |  |  |  |  | 0.052 µM | 0.9 µM |  | 
COCC(=O)N[C@@H](C[C@@H]1CCOC1)[C@H](O)CN[C@H]1CC2(CCC2)Oc2ncc(CC(C)(C)C)cc21 [compound 462] |  | 68 µL/min/mg | 107 µL/min/mg |  | 8500 nM |  |  |  |  |  |  |  |  |  | 16.9 µM | 0.432 µM | 0.649 µM
CO[C@H](C)C(=O)N[C@@H](Cc1cc(F)cc(-c2nccs2)c1)[C@H](O)CN[C@H]1CC2(CCC2)Oc2ncc(C#CC3CC3)cc21 [compound 880] | 21 µM | 107 µL/min/mg | 71 µL/min/mg |  | 300 nM |  |  |  |  |  |  |  |  | 0.063 µM | 0.3 µM |  | 
CO[C@H](C)C(=O)N[C@@H](Cc1ccc2c(c1)OCO2)[C@H](O)CN[C@H]1CC2(CCC2)Oc2ccc(C[C@@H](C)F)cc21 [compound 556] |  | 353 µL/min/mg | 211 µL/min/mg |  | 300 nM | 1 µM | 0.718 µM | 0.446 µM |  |  |  |  |  |  |  |  | 
COCC(=O)N[C@@H](Cc1cc(F)cc(F)c1)[C@H](O)CN[C@H]1CC(C)(C)Oc2c1cc(Br)c1c2OCO1 [compound 746] |  |  |  |  | 200 nM |  |  |  | 0.275 µM | 144 µL/min/mg | 150 µL/min/mg | 0.185 µM | 3.8 µM |  |  |  | 
CC(=O)N[C@@H](Cc1ccc2c(c1)OCO2)[C@H](O)CN[C@H]1CC2(CCC2)Oc2ncc(C(F)(F)C(C)(C)C)cc21 [compound 574] |  | 146 µL/min/mg | 46 µL/min/mg |  | 200 nM | 3.5 µM | 0.22 µM | 0.606 µM |  |  |  |  |  |  |  |  | 
CO[C@H](C)C(=O)N[C@@H](Cc1cc(F)cc(F)c1)[C@H](O)CN[C@H]1CC2(CCC2)Oc2c1cc(CC(C)C)nc2-c1nccn1C [compound 704] |  |  |  |  | ≤ 30 nM |  |  |  | 0.03 µM | 44 µL/min/mg | 20 µL/min/mg | 0.024 µM | ≥ 27 µM |  |  |  | 
CO[C@H](C)C(=O)N[C@@H](Cc1cccc(F)c1)[C@H](O)CN[C@H]1CC2(CCC2)Oc2c1cc(CC(C)(C)C)nc2-n1ccnc1 [compound 507] |  | 95 µL/min/mg | 14 µL/min/mg |  | 100 nM | 1.9 µM | 0.022 µM | 0.057 µM |  |  |  |  |  |  |  |  | 
